Results: ChEMBL document CHEMBL1131661, “Use of the Suzuki reaction for the synthesis of aryl-substituted heterocycles as corticotropin-releasing hormone (CRH) antagonists” (Bioorg Med Chem Lett, 1999)

Molecular target: T1, Corticotropin-releasing factor receptor 1 (Homo sapiens, UniProt P34998)
T1 sequence (P34998 whole entry): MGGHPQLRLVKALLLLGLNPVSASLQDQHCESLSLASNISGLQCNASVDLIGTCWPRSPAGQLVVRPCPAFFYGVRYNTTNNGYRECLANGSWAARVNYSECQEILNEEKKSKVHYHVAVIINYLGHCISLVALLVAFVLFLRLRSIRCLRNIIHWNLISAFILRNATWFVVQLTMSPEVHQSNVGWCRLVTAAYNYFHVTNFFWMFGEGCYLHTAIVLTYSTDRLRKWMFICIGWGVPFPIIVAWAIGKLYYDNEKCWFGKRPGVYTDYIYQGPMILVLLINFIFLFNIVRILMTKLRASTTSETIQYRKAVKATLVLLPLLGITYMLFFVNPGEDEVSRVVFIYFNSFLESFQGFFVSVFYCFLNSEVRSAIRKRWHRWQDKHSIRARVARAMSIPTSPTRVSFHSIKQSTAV
Test: Antagonistic activity for Corticotropin releasing factor receptor 1
Assay type: functional

SMILES	Ki
COc1cc(Br)c(-n2c(=O)n(C)c3c(-c4ccccc4C(F)(F)F)nc(C)nc32)c(OC)c1	95.5 nM
COc1cc(Br)c(Nc2nc(C)nc(-c3ccccc3C(F)(F)F)c2[N+](=O)[O-])c(OC)c1	23.1 nM
CSc1nn(-c2c(Cl)cc(Cl)cc2Cl)c2nc(C)nc(-c3ccccc3C(F)(F)F)c12	33.4 nM
COc1cc(Br)c(Nc2nc(C)nc(-c3ccccc3C(F)(F)F)c2N)c(OC)c1	60.3 nM
CCN(CC1CC1)c1nc(C)nc(Nc2c(Cl)cc(Cl)cc2Cl)c1C	2 nM
COc1cc(Br)c(-n2c(C)nc3c(-c4ccccc4C(F)(F)F)nc(C)nc32)c(OC)c1	32.3 nM
COc1cc(Br)c(-n2nnc3c(-c4ccccc4C(F)(F)F)nc(C)nc32)c(OC)c1	21.4 nM
Cc1cc(C)c(-n2nnc3c(-c4ccccc4C(F)(F)F)nc(C)nc32)c(C)c1	168 nM
COc1cc(Br)c(-n2c(=O)[nH]c3c(-c4ccccc4C(F)(F)F)nc(C)nc32)c(OC)c1	202 nM
Cc1cc(C)c(-n2c(C)c(C)c3c(-c4ccccc4C(F)(F)F)nc(C)nc32)c(C)c1	9.7 nM
CCN(c1nc(C)nc(-c2ccccc2C(F)(F)F)n1)c1ccc(C(C)C)cc1Br	5.5 nM
CCCCN(CC)c1nc(C)nc2c1nnn2-c1c(Br)cc(OC)cc1OC	3.5 nM
